In the experiment the test system is human embryonic stem cell line H1. Nature of the experiment: OpenArray qRT-PCR mRNA expression in differentiating H1 cells. The format is cell-based. Conditions: Example 5, condition A, beginning of Stage 6, 100 nM. Here is the method:
In addition to monitoring the metabolic profile of the spent media through daily sampling, representative samples of cells were obtained throughout the differentiation process and tested for mRNA expression of a panel of genes via Applied Biosystems® OpenArray® (Life Technologies) and calculated as fold difference in expression compared to pluripotent ISM cells after 24 hours in culture from the beginning of the experiment. FIGS. 2A through M depict data for expression of the following genes in cells differentiated through the first day of Stage 5: PDX1 (FIG.2A); NKX6.1 (FIG. 2B); PAX4 (FIG. 2C); PAX6 (FIG. 2D); NEUROG3(NGN3) (FIG. 2E); ABCC8 (FIG. 2F); Chromogranin-A (“CHGA”) (FIG. 2G); G6PC2 (FIG. 2H); IAPP (FIG. 2I); insulin (“INS”) (FIG. 2J); glucagon (“GCG”) (FIG. 2K); PTF1a (FIG. 2L); and NEUROD1 (FIG. 2M).
In addition to determining cell protein expression by flow cytometry, samples throughout Stages 3 and 4 of the differentiation process were tested for mRNA expression of a gene panel using OpenArray® qRT-PCR. […]
Throughout the differentiation process cell samples were collected from the suspension cultures for analysis. Samples were analyzed for mRNA expression (OpenArray® qRT-PCR) and protein expression (flow cytometry and florescent immune-histochemistry).
On the technique in general: In qPCR the cycle at which signal appears reflects the starting amount.

The source of these data is patent publication US20160215268A1, “Suspension Culturing of Pluripotent Stem Cells” (Janssen Biotech, Inc., priority 2014, published 2016).

Structures are written as SMILES.

As for `C[C@H](NC(=O)Cc1cc(F)cc(F)c1)C(=O)N[C@@H]1C(=O)N(C)c2ccccc2-c2ccccc21` [gamma secretase inhibitor XX], the NGN3 expression entry is listed as “second induction of NGN3”.
